How the values were obtained:
Type in all cases: biochemical
[1] = molecular target: SIK2 (QIK) (SEQ ID NO: 11) (Homo sapiens, UniProt Q9H0K1); test: SIK2 kinase assay (radiometric, 10 μM ATP); details: read-out: SIK2 (QIK) (SEQ ID NO: 11) kinase inhibition result
Procedure: Procedure: Enzyme was incubated with substrate peptide in reaction buffer in the presence and absence of test compounds or Staurosporine. All additions were done on ice, followed by the addition of ATP mix. Wells were uniformly mixed using an Eppendorff plate shaker and incubated at 30° C. for 20 min, and stopped by the addition of 5 μL of 3% phosphoric acid. Volume was increased to 100 μL by adding 0.8% phosphoric acid which was then transferred to PC filter mats (Millipore), pre-equilibrated with 70% ethanol and water. Plates were washed thrice with 100 μL 0.8% phosphoric acid and dried for an hour at 60° C.

[2] = molecular target: T1, SIK1 (SEQ ID NO: 10) (Homo sapiens, UniProt P57059); test: Protein kinase assay, SIK1; details: read-out: SIK1 (SEQ ID NO: 10) kinase inhibition result
T1 construct: Reaction Biology Corporation (assay service, HotSpot panel)
Procedure: (§1) Briefly, specific kinase/substrate pairs along with required cofactors were prepared in reaction buffer; 20 mM Hepes (pH 7.5), 10 mMmgCl2, 1 mM EGTA, 0.02% Brij35, 0.02 mg/ml BSA, 0.1 mM Na3VO4, 2 mM DTT, 1% DMSO. Compounds were delivered into the reaction, followed ˜20 min later by addition of a mixture of ATP (Sigma) and 33P ATP (PerkinElmer) to a final concentration of 10 μM. […] IC50 values and curve fits were obtained using Prism (GraphPad Software). Kinome tree representations were prepared using Kinome Mapper (http://www.reactionbiology.com/apps/kinome/mapper/LaunchKinome.htm).

[3] = molecular target: T2, SIK3 (QSK) (SEQ ID NO: 24) (Homo sapiens, UniProt Q9Y2K2); test: Protein kinase assay, SIK3; details: read-out: SIK3 (QSK) (SEQ ID NO: 24) kinase inhibition result
T2 construct: Reaction Biology Corporation (assay service, HotSpot panel)
Procedure: as §1

SIK2 (QIK) (SEQ ID NO: 11), sequence (Q9H0K1 whole entry): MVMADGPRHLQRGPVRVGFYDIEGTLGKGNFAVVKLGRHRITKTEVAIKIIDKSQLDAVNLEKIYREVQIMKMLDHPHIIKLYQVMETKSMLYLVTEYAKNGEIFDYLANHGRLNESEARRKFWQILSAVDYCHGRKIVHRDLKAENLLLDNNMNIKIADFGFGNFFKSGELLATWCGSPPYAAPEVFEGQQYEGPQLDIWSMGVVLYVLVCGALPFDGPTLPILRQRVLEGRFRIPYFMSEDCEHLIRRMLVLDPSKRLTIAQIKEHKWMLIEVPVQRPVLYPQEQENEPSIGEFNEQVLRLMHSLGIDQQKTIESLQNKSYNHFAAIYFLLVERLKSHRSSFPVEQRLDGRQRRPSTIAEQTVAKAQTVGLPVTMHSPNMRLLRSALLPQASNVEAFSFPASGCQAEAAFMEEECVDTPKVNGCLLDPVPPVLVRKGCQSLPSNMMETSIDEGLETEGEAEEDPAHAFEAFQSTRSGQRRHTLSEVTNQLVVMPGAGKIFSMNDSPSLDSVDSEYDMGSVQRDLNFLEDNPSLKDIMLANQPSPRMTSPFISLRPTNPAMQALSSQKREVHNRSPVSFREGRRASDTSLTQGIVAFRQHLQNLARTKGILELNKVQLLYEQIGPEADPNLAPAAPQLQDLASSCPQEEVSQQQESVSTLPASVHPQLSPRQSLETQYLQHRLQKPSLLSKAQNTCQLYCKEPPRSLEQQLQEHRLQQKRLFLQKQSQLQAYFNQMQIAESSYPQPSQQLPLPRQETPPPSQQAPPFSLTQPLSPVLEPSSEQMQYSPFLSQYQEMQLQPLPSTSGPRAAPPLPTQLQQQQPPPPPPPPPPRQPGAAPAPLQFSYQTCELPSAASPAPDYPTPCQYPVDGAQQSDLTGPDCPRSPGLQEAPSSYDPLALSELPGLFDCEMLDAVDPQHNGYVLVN
T1 sequence (P57059 whole entry): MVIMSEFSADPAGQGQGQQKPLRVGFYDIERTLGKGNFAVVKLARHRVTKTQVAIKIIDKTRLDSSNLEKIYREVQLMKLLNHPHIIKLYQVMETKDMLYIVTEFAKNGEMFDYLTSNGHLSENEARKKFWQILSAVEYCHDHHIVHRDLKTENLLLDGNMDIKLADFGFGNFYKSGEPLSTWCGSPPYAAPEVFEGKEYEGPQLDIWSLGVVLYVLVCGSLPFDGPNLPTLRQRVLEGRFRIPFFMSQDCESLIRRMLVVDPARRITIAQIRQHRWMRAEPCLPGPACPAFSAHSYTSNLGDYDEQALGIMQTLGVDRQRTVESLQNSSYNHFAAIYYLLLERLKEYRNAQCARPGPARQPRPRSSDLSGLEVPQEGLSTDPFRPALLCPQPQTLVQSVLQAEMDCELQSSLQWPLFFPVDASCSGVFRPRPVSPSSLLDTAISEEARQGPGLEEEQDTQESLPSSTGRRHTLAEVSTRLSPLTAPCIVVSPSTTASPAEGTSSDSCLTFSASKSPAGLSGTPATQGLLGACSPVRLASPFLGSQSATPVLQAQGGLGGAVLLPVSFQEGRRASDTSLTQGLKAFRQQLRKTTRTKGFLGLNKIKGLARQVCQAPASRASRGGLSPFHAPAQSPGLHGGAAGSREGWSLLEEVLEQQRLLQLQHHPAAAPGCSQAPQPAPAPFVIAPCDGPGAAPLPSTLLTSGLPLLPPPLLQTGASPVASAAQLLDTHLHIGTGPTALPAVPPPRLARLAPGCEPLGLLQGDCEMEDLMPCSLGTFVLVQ
T2 sequence (Q9Y2K2 whole entry): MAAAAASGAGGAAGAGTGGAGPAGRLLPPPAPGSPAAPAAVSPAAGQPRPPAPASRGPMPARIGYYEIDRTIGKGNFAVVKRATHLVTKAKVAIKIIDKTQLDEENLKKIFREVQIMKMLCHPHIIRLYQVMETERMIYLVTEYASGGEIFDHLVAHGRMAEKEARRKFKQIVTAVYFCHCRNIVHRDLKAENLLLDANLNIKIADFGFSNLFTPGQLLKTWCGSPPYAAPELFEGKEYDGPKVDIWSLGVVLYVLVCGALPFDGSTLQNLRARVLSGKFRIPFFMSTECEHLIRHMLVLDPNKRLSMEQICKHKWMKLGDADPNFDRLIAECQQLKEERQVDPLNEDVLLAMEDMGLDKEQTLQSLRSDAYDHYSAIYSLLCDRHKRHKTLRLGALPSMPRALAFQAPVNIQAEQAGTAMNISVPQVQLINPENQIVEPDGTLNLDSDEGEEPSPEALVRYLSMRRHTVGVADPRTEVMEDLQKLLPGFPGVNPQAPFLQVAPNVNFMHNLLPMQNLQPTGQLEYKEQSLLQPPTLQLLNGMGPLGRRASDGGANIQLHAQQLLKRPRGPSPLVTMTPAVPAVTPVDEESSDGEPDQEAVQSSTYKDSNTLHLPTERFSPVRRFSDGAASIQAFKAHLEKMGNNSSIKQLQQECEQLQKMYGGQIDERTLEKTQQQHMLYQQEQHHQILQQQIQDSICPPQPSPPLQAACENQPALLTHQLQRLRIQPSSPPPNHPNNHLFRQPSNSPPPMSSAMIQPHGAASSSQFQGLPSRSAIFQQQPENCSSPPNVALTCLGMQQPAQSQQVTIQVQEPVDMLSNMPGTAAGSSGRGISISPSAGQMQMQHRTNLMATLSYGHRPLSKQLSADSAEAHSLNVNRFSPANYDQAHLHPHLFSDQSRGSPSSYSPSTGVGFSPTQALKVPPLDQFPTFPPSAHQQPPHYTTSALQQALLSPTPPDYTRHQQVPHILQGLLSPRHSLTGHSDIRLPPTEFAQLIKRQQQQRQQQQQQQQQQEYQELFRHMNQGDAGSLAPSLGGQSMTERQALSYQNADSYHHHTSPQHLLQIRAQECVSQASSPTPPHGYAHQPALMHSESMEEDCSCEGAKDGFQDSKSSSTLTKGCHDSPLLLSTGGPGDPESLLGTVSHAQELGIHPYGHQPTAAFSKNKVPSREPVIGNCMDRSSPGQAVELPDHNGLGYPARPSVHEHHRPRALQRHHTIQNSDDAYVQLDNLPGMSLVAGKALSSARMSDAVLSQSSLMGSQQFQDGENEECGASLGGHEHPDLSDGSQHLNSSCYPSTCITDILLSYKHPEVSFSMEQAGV

SMILES	IC50 [1] [nM]	IC50 [2] [nM]	IC50 [3] [nM]
Fc1ccc(-c2n[nH]c3nccc(-c4ccsc4)c23)c(F)c1 [Example 2, 3-(2,4-difluorophenyl)-4-(thiophen-3-yl)-1H-pyrazolo[3,4-b]pyridine]	> 100	> 1000	> 1000
CCOc1ccccc1-c1n[nH]c2nccc(-c3ccsc3)c12 [Example 5, 3-(2-ethoxyphenyl)-4-(thiophen-3-yl)-1H-pyrazolo[3,4-b]pyridine]	> 100	> 1000	< 100
COc1cc(Cl)ccc1-c1n[nH]c2nccc(-c3ccsc3)c12 [Example 6, 3-(4-chloro-2-methoxyphenyl)-4-(thiophen-3-yl)-1H-pyrazolo[3,4-b]pyridine]	> 100	> 100	> 1000
COc1ccccc1-c1c[nH]c2nccc(-c3ccsc3)c12 [Example 17, 3-(2-methoxyphenyl)-4-(thiophen-3-yl)-1H-pyrrolo[2,3-b]pyridine]	> 100	> 100	> 100
COc1ncccc1-c1c[nH]c2nccc(-c3ccsc3)c12 [Example 36, 3-(2-methoxypyridin-3-yl)-4-(thiophen-3-yl)-1H-pyrrolo[2,3-b]pyridine]	> 100	> 100	
c1cnc(N2CCOCC2)c(-c2c[nH]c3nccc(-c4ccsc4)c23)c1 [Example 37, 4-(3-(4-(thiophen-3-yl)-1H-pyrrolo[2,3-b]pyridin-3-yl)pyridin-2-yl)morpholine]	> 100	> 100	
COc1ccc(-c2n[nH]c3nccc(-c4ccsc4)c23)c(OC)c1 [Example 87, 3-(2,4-dimethoxyphenyl)-4-(thiophen-3-yl)-1H-pyrazolo[3,4-b]pyridine]	> 100	> 1000	
CCN(CC)S(=O)(=O)c1ccccc1-c1c[nH]c2nccc(-c3ccsc3)c12 [Example 95, N,N-diethyl-2-(4-(thiophen-3-yl)-1H-pyrrolo[2,3-b]pyridin-3-yl)benzenesulfonamide]	> 1000	> 1000	> 1000
O=S(=O)(c1ccc(-c2c[nH]c3nccc(-c4ccsc4)c23)cc1)N1CCC1 [Example 96, 3-(4-(azetidin-1-ylsulfonyl)phenyl)-4-(thiophen-3-yl)-1H-pyrrolo[2,3-b]pyridine]	> 1000	> 1000	> 1000
O=S(=O)(c1cccc(-c2c[nH]c3nccc(-c4ccsc4)c23)c1)N1CCCC1 [Example 97, 3-(3-(pyrrolidin-1-ylsulfonyl)phenyl)-4-(thiophen-3-yl)-1H-pyrrolo[2,3-b]pyridine]	> 1000	> 1000	> 1000
O=S(=O)(c1ccc(-c2c[nH]c3nccc(-c4ccsc4)c23)cc1)N1CCCC1 [Example 98, 3-(4-(pyrrolidin-1-ylsulfonyl)phenyl)-4-(thiophen-3-yl)-1H-pyrrolo[2,3-b]pyridine]	> 1000	> 1000	> 1000
COc1ccccc1-c1c[nH]c2ncc(-c3ccc(C)o3)cc12 [Example 115, 3-(2-methoxyphenyl)-5-(5-methylfuran-2-yl)-1H-pyrrolo[2,3-b]pyridine]	< 100	> 100	> 1000
Cc1ccc(-c2ccnc3[nH]cc(-c4cccc(F)c4Cl)c23)o1 [Example 116, 3-(2-chloro-3-fluorophenyl)-4-(5-methylfuran-2-yl)-1H-pyrrolo[2,3-b]pyridine]	> 100	> 1000	> 1000
COc1c(F)cccc1-c1c[nH]c2nccc(-c3ccsc3)c12 [Example 120, 3-(3-fluoro-2-methoxyphenyl)-4-(thiophen-3-yl)-1H-pyrrolo[2,3-b]pyridine]	< 100	> 100	> 100
Oc1ccccc1-c1c[nH]c2ncc(-c3ccsc3)cc12 [Example 123, 2-(5-(thiophen-3-yl)-1H-pyrrolo[2,3-b]pyridin-3-yl)phenol]	> 100	> 100	> 100
Oc1c(F)cc(F)cc1-c1c[nH]c2ncc(-c3ccsc3)cc12 [Example 124, 2,4-difluoro-6-(5-(thiophen-3-yl)-1H-pyrrolo[2,3-b]pyridin-3-yl)phenol]	> 100	> 100	> 100

SMILES	IC50 [1] [nM]	IC50 [2] [nM]	IC50 [3] [nM]
COc1c(F)cccc1-c1c[nH]c2ncc(-c3ccsc3)cc12 [Example 125, 3-(3-fluoro-2-methoxyphenyl)-5-(thiophen-3-yl)-1H-pyrrolo[2,3-b]pyridine]	< 100	> 1000	
Cc1ccc(-c2cnc3[nH]cc(-c4cccc(F)c4O)c3c2)o1 [Example 128, 2-fluoro-6-(5-(5-methylfuran-2-yl)-1H-pyrrolo[2,3-b]pyridin-3-yl)phenol]	< 100	> 100	> 100
Fc1cccc(-c2c[nH]c3ncc(-c4ccc(CN5CCOCC5)s4)cc23)c1Cl [Example 133]	< 100	> 1000	> 100
Cc1nc(Nc2cnc3[nH]cc(-c4cccc(F)c4Cl)c3c2)sc1Cl [Example 134, 5-chloro-N-(3-(2-chloro-3-fluorophenyl)-1H-pyrrolo[2,3-b]pyridin-5-yl)-4-methylthiazol-2-amine]	> 100	> 100	> 1000
CN(C)S(=O)(=O)c1cccc(-c2cnc3[nH]cc(-c4cccc(F)c4Cl)c3c2)c1 [Example 135, 3-(3-(2-chloro-3-fluorophenyl)-1H-pyrrolo[2,3-b]pyridin-5-yl)-N,N-dimethylbenzenesulfonamide]	< 100	> 100	> 100
FC1(F)CN(c2c[nH]c3ncc(-c4ccsc4)cc23)C1 [Example 136, 3-(3,3-difluoroazetidin-1-yl)-5-(thiophen-3-yl)-1H-pyrrolo[2,3-b]pyridine]	< 100	> 100	> 100
Fc1c(-c2c[nH]c3ncc(-c4ccsc4)cc23)ccnc1Cl [Example 141, 3-(2-chloro-3-fluoropyridin-4-yl)-5-(thiophen-3-yl)-1H-pyrrolo[2,3-b]pyridine]	< 100	> 1000	> 100
COc1c(F)cccc1-c1c[nH]c2ncc(-c3ccc(CN4CCOCC4)s3)cc12 [Example 142, 4-((5-(3-(3-fluoro-2-methoxyphenyl)-1H-pyrrolo[2,3-b]pyridin-5-yl)thiophen-2-yl)methyl)morpholine]	< 100	> 1000	< 100
COc1c(F)cccc1-c1c[nH]c2ncc(-c3ccc(C)o3)cc12 [Example 168, 3-(3-fluoro-2-methoxyphenyl)-5-(5-methylfuran-2-yl)-1H-pyrrolo[2,3-b]pyridine]	< 100	> 1000	> 1000
COc1c(F)cccc1-c1c[nH]c2ncc(-c3ccc(CN4CCCC4)s3)cc12 [Example 174, 3-(3-fluoro-2-methoxyphenyl)-5-(5-(pyrrolidin-1-ylmethyl)thiophen-2-yl)-1H-pyrrolo[2,3-b]pyridine]	< 100	> 1000	> 100
COc1c(F)cccc1-c1c[nH]c2ncc(-c3ccc(CN4CCCCC4)s3)cc12 [Example 175, 3-(3-fluoro-2-methoxyphenyl)-5-(5-(piperidin-1-ylmethyl)thiophen-2-yl)-1H-pyrrolo[2,3-b]pyridine]	< 100	> 1000	> 100
COc1c(F)cccc1-c1c[nH]c2ncc(-c3cnc(N4CCOCC4)s3)cc12 [Example 176, 4-(5-(3-(3-fluoro-2-methoxyphenyl)-1H-pyrrolo[2,3-b]pyridin-5-yl)thiazol-2-yl)morpholine]	< 100	> 1000	> 100
COc1c(F)cc(F)cc1-c1c[nH]c2ncc(-c3ccc(CN4CCCC4)s3)cc12 [Example 177, 3-(3,5-difluoro-2-methoxyphenyl)-5-(5-(pyrrolidin-1-ylmethyl)thiophen-2-yl)-1H-pyrrolo[2,3-b]pyridine]	< 100	> 1000	> 100
COc1c(F)cc(F)cc1-c1c[nH]c2ncc(-c3ccc(CN4CCCCC4)s3)cc12 [Example 178, 3-(3,5-difluoro-2-methoxyphenyl)-5-(5-(piperidin-1-ylmethyl)thiophen-2-yl)-1H-pyrrolo[2,3-b]pyridine]	< 100	> 1000	> 100
COc1c(F)cc(F)cc1-c1c[nH]c2ncc(-c3cnc(N4CCOCC4)s3)cc12 [Example 179, 4-(5-(3-(3,5-difluoro-2-methoxyphenyl)-1H-pyrrolo[2,3-b]pyridin-5-yl)thiazol-2-yl)morpholine]	< 100	> 1000	> 100
COc1c(F)cc(F)cc1-c1c[nH]c2ncc(-c3cnn(C4CCN(S(C)(=O)=O)CC4)c3)cc12 [Example 214, 3-(3,5-difluoro-2-methoxyphenyl)-5-(1-(1-(methylsulfonyl)piperidin-4-yl)-1H-pyrazol-4-yl)-1H-pyrrolo[2,3-b]pyridine]		> 1000	
